What all share (assay): Testing of the Ability of Compounds to Inhibit VEGFR and EGFR Kinase
In test [1] the target is Epidermal growth factor receptor (Homo sapiens, UniProt P00533). The procedure:
(§1) This assay directly monitored the ability of compounds to inhibit kinase phosphorylation by measuring non-phosphorylated and phosphorylated substrates in kinase reactions by using Mobility Shift Assays/IMAP™ analysis. Test Protocol and Procedures: Add the kinase and DTT to 1× kinase buffer to form a 2.5× kinase solution; transfer 10 μL of 2.5× kinase solution to a 384-well reaction plate and add 1× kinase buffer to negative control wells. Incubate the plate for 10 min at room temperature; add FAM-labeled peptides, MgCl2, ATP and other reagents to 1× kinase buffer to form a 2.5× substrate solution; transfer 10 μL of the above 2.5× substrate solution to the 384-well reaction plate; incubate the plate at 28° C. for different times,and add 25 μL of stop solution to the 384-well reaction plate to stop the reaction. Read the conversion ratio data on CaliperEZ Reader II.

The target in test [2] is Vascular endothelial growth factor receptor 1 (Homo sapiens, UniProt P17948). The procedure:
as §1

Test [3] has as its target Vascular endothelial growth factor receptor 3 (Homo sapiens, UniProt P35916). As for the experimental part: as §1

This passage reports IC50 results from BindingDB's records for patent US20260049071 (Beyang Therapeutics Co., 2026).

What is called IC50 is the concentration at which inhibition is half-maximal. A higher IC50 goes with weaker potency in that assay.

Sequence of Vascular endothelial growth factor receptor 3 (P35916 whole entry): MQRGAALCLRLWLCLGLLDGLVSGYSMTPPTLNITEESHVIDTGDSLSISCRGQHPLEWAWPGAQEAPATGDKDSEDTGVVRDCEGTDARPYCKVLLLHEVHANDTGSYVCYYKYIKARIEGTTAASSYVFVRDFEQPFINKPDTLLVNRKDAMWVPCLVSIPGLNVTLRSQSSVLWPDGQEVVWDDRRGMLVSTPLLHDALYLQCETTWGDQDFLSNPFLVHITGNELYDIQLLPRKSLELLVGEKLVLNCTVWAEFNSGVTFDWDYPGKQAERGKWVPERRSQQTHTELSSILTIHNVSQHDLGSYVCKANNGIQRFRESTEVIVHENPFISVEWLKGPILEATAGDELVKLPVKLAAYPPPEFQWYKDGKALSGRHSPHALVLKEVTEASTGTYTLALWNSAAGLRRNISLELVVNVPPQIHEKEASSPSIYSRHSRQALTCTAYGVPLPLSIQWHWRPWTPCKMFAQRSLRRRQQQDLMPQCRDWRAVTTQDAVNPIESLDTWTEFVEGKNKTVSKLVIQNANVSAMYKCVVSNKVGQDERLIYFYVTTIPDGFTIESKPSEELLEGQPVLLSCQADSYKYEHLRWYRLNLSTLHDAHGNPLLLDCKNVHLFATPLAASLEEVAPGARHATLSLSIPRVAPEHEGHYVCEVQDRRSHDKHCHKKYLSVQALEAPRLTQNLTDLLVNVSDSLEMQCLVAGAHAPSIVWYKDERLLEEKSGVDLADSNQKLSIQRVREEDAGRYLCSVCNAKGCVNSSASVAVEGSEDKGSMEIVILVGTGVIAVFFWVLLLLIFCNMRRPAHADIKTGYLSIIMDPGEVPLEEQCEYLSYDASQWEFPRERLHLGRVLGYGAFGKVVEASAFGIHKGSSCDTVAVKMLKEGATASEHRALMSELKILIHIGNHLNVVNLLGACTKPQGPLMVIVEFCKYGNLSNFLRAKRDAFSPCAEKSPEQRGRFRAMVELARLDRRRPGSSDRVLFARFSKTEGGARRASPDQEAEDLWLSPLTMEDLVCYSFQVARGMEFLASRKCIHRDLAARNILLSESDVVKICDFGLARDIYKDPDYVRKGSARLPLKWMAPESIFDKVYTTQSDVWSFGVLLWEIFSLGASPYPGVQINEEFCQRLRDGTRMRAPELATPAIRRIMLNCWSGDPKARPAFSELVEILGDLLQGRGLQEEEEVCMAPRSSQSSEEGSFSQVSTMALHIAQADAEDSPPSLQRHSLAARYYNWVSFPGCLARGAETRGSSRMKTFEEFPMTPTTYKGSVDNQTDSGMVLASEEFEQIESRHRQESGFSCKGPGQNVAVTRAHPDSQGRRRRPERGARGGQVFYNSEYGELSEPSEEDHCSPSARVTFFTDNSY
Sequence of Vascular endothelial growth factor receptor 1 (P17948 whole entry): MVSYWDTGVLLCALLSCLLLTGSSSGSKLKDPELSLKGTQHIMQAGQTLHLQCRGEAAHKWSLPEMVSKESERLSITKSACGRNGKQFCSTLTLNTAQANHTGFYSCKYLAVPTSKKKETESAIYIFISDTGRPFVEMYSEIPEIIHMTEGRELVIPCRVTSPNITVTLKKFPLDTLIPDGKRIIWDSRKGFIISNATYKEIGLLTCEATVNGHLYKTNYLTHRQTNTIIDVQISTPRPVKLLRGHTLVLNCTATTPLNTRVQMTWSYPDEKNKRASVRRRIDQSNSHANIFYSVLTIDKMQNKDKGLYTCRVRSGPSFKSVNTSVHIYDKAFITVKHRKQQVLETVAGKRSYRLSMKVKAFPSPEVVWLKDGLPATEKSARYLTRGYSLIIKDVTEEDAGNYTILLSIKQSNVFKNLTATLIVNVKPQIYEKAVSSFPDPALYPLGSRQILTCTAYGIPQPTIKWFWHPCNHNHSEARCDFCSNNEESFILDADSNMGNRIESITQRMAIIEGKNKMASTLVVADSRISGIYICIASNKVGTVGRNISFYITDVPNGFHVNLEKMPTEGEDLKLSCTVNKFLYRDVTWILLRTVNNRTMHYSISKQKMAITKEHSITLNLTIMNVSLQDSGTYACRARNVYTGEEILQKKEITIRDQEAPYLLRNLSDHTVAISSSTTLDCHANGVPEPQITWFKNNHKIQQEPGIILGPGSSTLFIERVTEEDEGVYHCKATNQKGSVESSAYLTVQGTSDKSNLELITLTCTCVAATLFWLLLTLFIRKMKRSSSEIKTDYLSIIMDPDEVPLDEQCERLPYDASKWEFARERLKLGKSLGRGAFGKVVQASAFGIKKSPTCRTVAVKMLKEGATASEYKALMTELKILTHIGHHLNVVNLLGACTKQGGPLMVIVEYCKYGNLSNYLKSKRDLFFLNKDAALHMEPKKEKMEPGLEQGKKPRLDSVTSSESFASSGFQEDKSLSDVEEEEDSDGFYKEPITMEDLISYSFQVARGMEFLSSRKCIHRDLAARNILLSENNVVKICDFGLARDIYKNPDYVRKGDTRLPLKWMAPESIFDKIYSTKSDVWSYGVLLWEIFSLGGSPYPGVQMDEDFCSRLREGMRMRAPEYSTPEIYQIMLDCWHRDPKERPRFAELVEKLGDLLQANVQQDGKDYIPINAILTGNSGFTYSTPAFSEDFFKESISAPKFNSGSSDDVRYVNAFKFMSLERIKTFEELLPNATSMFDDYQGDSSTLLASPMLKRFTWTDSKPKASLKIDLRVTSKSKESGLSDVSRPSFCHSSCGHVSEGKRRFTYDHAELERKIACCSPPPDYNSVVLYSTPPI
Sequence of Epidermal growth factor receptor (P00533 whole entry): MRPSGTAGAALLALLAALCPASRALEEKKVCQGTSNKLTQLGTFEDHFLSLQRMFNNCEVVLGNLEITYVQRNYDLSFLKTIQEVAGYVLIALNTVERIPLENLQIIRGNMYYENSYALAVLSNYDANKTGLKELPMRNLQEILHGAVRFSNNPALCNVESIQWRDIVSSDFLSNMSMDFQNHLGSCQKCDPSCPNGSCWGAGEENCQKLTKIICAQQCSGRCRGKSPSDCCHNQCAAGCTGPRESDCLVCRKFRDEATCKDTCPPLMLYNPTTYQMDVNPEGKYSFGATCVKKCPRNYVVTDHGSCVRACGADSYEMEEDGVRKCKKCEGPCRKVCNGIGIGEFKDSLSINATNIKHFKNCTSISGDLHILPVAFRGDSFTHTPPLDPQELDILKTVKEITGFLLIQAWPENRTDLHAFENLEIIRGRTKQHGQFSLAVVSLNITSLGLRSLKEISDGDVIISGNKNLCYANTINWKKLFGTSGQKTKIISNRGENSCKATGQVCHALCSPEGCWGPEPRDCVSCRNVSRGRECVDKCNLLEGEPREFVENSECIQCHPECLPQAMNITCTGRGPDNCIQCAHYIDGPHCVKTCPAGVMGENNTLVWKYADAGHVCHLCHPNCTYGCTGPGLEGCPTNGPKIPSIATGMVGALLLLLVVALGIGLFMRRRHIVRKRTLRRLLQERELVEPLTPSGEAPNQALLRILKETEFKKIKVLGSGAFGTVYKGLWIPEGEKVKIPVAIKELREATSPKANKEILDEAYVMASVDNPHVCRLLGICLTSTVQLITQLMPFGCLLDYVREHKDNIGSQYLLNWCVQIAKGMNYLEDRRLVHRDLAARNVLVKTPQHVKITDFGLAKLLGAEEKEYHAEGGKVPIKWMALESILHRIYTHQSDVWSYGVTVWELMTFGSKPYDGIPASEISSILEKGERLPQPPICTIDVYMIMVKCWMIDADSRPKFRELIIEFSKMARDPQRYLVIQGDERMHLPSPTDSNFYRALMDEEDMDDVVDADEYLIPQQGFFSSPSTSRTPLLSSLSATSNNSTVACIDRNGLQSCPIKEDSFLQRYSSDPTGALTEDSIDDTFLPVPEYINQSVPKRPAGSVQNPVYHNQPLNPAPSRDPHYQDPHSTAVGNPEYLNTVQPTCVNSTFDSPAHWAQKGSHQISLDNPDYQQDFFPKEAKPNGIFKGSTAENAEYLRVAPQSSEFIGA

Turning to `NC(=O)c1ccccc1Sc1ccc2c(/C=C/c3cnn(CCCN4CCCC4)c3)n[nH]c2c1` [US20260049071, No. I-44], the IC50 result in test [1] was “in the range around 33000 nM”; in test [2] it was 1 to 10 nM; in test [3] it was 10 to 100 nM.
